Measured values from US20080306001A1, “TRANSCRIPTIONAL MODULATION OF EXTRACELLULAR MATRIX (ECM) OF DERMAL FIBROBLASTS” (priority 2007, published 2008).

Experiments:
[1] = tested on: human dermal fibroblast cell lines obtained from elderly patients; assay: Effect of CPP mimicking peptides on synthesis of collagen I, collagen II and elastin in aged dermal fibroblasts (Western blot); type: cell-based; conditions: peptide 10 μM
Protocol: The ability to interfere interaction of TAF4, BRG1 and N-CoR1 with the active transcriptional complex and stimulate synthesis of collagen I, collagen II and elastin was tested on 2 human dermal fibroblast cell lines obtained from elderly patients. It has been shown that: • TAF4 suppression using siRNA stimulates expression of numerous genes in embryonic fibroblasts. (Mengus G, Fadloun A, Kobi D, Thibault C, Perletti L, Michel I, Davidson I. 2005. TAF4 inactivation in embryonic fibroblasts activates TGFbeta signaling and autocrine growth. EMBO J. 2005 Aug. 3; 24(15):2753-67.) • Brg1 inhibits numerous genes during development. (Inayoshi Y, Kaneoka H, Machida Y, Terajima M, Dohda T, Miyake K, Iijima S. 2005. Repression of GR-mediated expression of the tryptophan oxygenase gene by the SWI/SNF complex during liver development. J Biochem (Tokyo). 2005 October; 138(4):457-65) • N-CoR1 plays a crucial role in the repressive activity of diverse transcription factors (J. Frasor, J. M. Danes, C. C. Funk and B. S. Katzenellenbogen. 2005. Estrogen down-regulation of the corepressor N-CoR: Mechanism and implications for estrogen derepression of N-CoR-regulated genes. PNAS. vol. 102 no. 37, 13153-13157.) • SMAD7 functions as a component of negative feedback regulation that controls timining and extent of TGFbeta signaling (Zhu X, Topouzis S, Liang L F, Stotish RL. Myostatin signaling through Smad2, Smad3 and Smad4 is regulated by the inhibitory Smad7 by a negative feedback mechanism. Cytokine. 2004 Jun. 21; 26(6):262-72.) • TAF10 is one of the TATA box-binding protein-associated factors (TAFs), which constitute the TFIID complex.
(§1) Human dermal fibroblasts were cultured in standard conditions (DMEM, 10% FCS, penicillin+streptomycin) and used in experiments after three passages in the laboratory. Cells were grown in 24 well plates, each treatment in triplicates. Cells were plated 16 hours prior treatments started. Peptides were added to the media, and media was changed every day during 7 day experiment. CPP concentration was 10 μM.
(§2) Western blot using antibodies against fibronectin, thrombospondin, collagen I, collagen II, collagen 4, elastin, MMP1, MMP2, MMP7 and TIMP1 were performed using standard protocols. Cells were lysed in SDS loading buffer and separated on 5% SDS PAGE following transfer onto PVD membrane using semidry blotting. Antibodies were diluted 1:2000 and incubated for 2 hours followed by secondary antibody conjugated to alkaline phosphatase. Antibody binding was visualized using one step BCIP reagent (Pierce).

[2] = tested on: dermal fibroblasts; assay: Effect of interfering peptides on expression of ECM components, protein level (Western blot); type: cell-based, human
Protocol: as §1, §2
(§3) The cells were treated with peptides (1 μM) 24 hours for the mRNA analysis and 72 hours for protein analysis. All experiments were done in triplicates. Variation between replicates was less that 15%.

[3] = tested on: human dermal fibroblasts; assay: Whole genome gene expression analysis (Affymetrix GeneChip Human Gene 1.0 ST Array); type: cell-based; conditions: peptide 10 μM, 24 hour
Protocol: Human dermal fibroblasts were cultured in standard conditions (DMEM, 10% FCS, penicillin+streptomycin) and used in experiments after three passages in the laboratory. Cells were grown in 60 mm plates, each treatment in duplicates. Cells were plated 16 hours prior treatments started. Peptides (10 μM) were added to the media, and cells were collected for RNA isolation 24 hour later.
Total RNA was purified by using 4PCRmini kit (Ambion). First-strand cDNAs were synthesized with Superscript III reverse transcriptase (Invitrogen, USA) and 5 μg of total RNA using oligo d(T) priming in a final reaction volume of 50 μL and used to generate fluorescently labeled probes for whole genome gene expression analysis. Whole genome gene expression analysis was conducted using Affymetrix GeneChip™ Human Gene 1.0 ST Array.

[4] = tested on: dermal fibroblasts; assay: Effect of interfering peptides on expression of ECM components, mRNA level (RT-PCR); type: cell-based, human; conditions: peptide 1 μM, 24 hours
Protocol: as §1
(§4) Total RNA from various human tissues was purified using RNAwiz (Ambion, USA) and subjected to subsequent DNase I treatment using the DNA-Free kit (Ambion). Total RNA from cancer cells was purified by using 4PCRmini kit (Ambion). First-strand cDNAs were synthesized with Superscript III reverse transcriptase (Invitrogen, USA) and 5 μg of total RNA using oligo d(T) priming in a final reaction volume of 50 μL
(§5) The cDNA was amplified by PCR using the 2,5U Hot-Firepol (Solis BioDyne, Estonia) and buffer Yellow (Naxo, Estonia). Reaction was performed in a 10 ul volume, using 0.5 ul cDNA as a template. Following primer sets were designed for this study:
as §3

[5] = tested on: human dermal fibroblasts; assay: Effect of peptides on expression of growth factors, protein (Western blot); type: cell-based; conditions: peptide 10 μM
Protocol: as §1, with “12” for “24”
as §2, with “Western blots” for “Western blot”, “against growth factors” for “against fibronectin, thrombospondin, collagen I, collagen II, collagen 4, elastin, MMP1, MMP2, MMP7 and TIMP1”

[6] = tested on: human dermal fibroblasts; assay: Effect of peptides on expression of growth factors, mRNA (RT-PCR); type: cell-based
Protocol: as §1, with “12” for “24”
as §4
as §5, with “Primer” for “Following primer”, “designed to specifically amplify the nucleic acid sequence for the corresponding growth factor” for “designed”, “study: […]” for “study:”

[7] = fibroblast 1 (first block of Table 1)
[8] = second block of Table 1 (also fibroblast 1)

Sequence: RPKKRKVRRRLATNSELVGTLTRSCKDETFLL (synethetic amino acid sequence) [TAF4.1, CPP-mimicking peptide]
- collagen I, fold increase after 7 days [1, 7]: 5 fold
- collagen II, fold increase after 7 days [1, 7]: 3 fold
- elastin, fold increase after 7 days [1, 7]: 4 fold
- collagen I, fold increase after 7 days [1, 8]: 2 fold
- collagen II, fold increase after 7 days [1, 8]: 4 fold
- elastin, fold increase after 7 days [1, 8]: 2 fold

Sequence: RPKKRKVRRRGQLNSDHKSQLVEKVRLKIGCGIQL [SMAD7.1, CPP-mimicking peptide]
- expression of components of ECM (in words) ([2]; dermal fibroblasts in vitro, protein and mRNA): stimulate expression of components of ECM
- CollagenI protein, fold stimulation ([2]; peptide 1 μM, 72 hours): 2.9 fold
- Elastin protein, fold stimulation ([2]; peptide 1 μM, 72 hours): 2.6 fold
- Fibronectin protein, fold stimulation ([2]; peptide 1 μM, 72 hours): 3.1 fold
- MMP1 protein, fold stimulation ([2]; peptide 1 μM, 72 hours): 1.9 fold
- MMP2 protein, fold stimulation ([2]; peptide 1 μM, 72 hours): 1.1 fold
- MMP7 protein, fold stimulation ([2]; peptide 1 μM, 72 hours): 1.9 fold
- TIMP protein, fold stimulation ([2]; peptide 1 μM, 72 hours): 1.3 fold
- collagen IV protein, fold stimulation ([2]; peptide 1 μM, 72 hours): 2.1 fold
- thrombospondin protein, fold stimulation ([2]; peptide 1 μM, 72 hours): 3.2 fold
- Number of genes with altered expression: expression stimulated 2-5 fold [3]: 986
- Number of genes with altered expression: expression stimulated more than 5 fold [3]: 198
- Number of genes with altered expression: expression suppressed 2-5 fold [3]: 1011
- Number of genes with altered expression: expression suppressed more than 5 fold [3]: 124
- MMP1 mRNA, fold stimulation [4]: 3.6 fold
- MMP7 mRNA, fold stimulation [4]: 2.9 fold
- MMp2 mRNA, fold stimulation [4]: 1.9 fold
- TIMP mRNA, fold stimulation [4]: 4.3 fold
- collagen IV mRNA, fold stimulation [4]: 5.4 fold
- collagenI mRNA, fold stimulation [4]: 7.9 fold
- elastin mRNA, fold stimulation [4]: 7.7 fold
- fibronectin mRNA, fold stimulation [4]: 8.7 fold
- thrombospondin mRNA, fold stimulation [4]: 6.9 fold
- CTGF protein, fold stimulation of expression compared to control [5]: 15 fold
- HGF protein, fold stimulation of expression compared to control [5]: 1.7 fold
- IGF-1 protein, fold stimulation of expression compared to control [5]: 1 fold
- VEGF protein, fold stimulation of expression compared to control [5]: 1.3 fold
- b-FGF protein, fold stimulation of expression compared to control [5]: 1 fold
- CTGF mRNA, fold stimulation of expression compared to control ([6]; peptide 10 μM): 27 fold
- HGF mRNA, fold stimulation of expression compared to control ([6]; peptide 10 μM): 8 fold
- IGF-1 mRNA, fold stimulation of expression compared to control ([6]; peptide 10 μM): 4 fold
- VEGF mRNA, fold stimulation of expression compared to control ([6]; peptide 10 μM): 4 fold
- b-FGF mRNA, fold stimulation of expression compared to control ([6]; peptide 10 μM): 2 fold
- expression of CTGF (in words) ([6]; protein and mRNA): stimulate expression of CTGF significantly

Sequence: RPKKRKVRRRMGLGKTIQTIALITYLMEHKRINGP [BRG1.1, CPP-mimicking peptide]
- collagen I, fold increase after 7 days [1, 7]: 7 fold
- collagen II, fold increase after 7 days [1, 7]: 2 fold
- elastin, fold increase after 7 days [1, 7]: 3 fold
- collagen I, fold increase after 7 days [1, 8]: 3 fold
- collagen II, fold increase after 7 days [1, 8]: 5 fold
- elastin, fold increase after 7 days [1, 8]: 6 fold
